One data set has as its system APP/PS1 mice. Nature of the data set: Contextual fear conditioning, APP/PS1 mice. It counts as in vivo, mouse. The procedure: Use of peptides in vivo with osmotic pumps. APP/PS1 (a mouse model of Alzheimer's disease) and WT mice were anesthetized with isofluorane, and i.c.v. delivery cannulas (brain alzet kit III) were implanted with a stereotaxic frame at the following coordinates according to the bregma: AP, −0.5 mm; ML, 1 mm; and DV, −2.2 mm. Osmotic minipumps (Alzet; model #1004) were filled with the peptides (Dodecanoyl-[…] (conjugate of peptide SEQ ID 2) or Dodecanoyl-[…] (conjugate of peptide SEQ ID 1), 10 μM peptide in 2 mM in cyclodextrin) or with vehicle (cyclodextrin), and equilibrated in 0.9% NaCl at 37° C. for 48 hr. They were attached to the i.c.v. cannula tubing and subcutaneously implanted at the back. After 21 days, behavioral testing was started. Animal manipulation and data analysis were carried out blind with respect to genotype and treatment.
Fear conditioning. In this test, mice form an association between a certain context (an experimental cage/tone) and an aversive event (a foot shock) that takes place in that context. […] Training and testing took place in a rodent observation cage (30×37×25 cm) that was placed in a sound attenuating chamber. In the training (conditioning), the mouse was exposed to the conditioning context (180 sec) followed by a tone (CS, 20 sec, 2 kHz, 85 dB). After termination of the tone, a foot shock (US, 0.75 mA, 2 sec) was delivered through a stainless-steel grid floor. Mice received three foot shocks with an intertrial interval of 60 s. The mouse was removed from the fear conditioning box 30 sec after shock termination and returned to their home cages. Testing: In the contextual fear conditioning version, mice were placed back into the original training context for 8 min, during which no foot shock was delivered. […] The animals' behavior was scored by an observer blind to the treatment conditions. Using a time-sampling procedure every 2 s, each mouse was scored blindly as either freezing or active at the instant the sample was taken. […]

The nature of data set [1]: Stability in simulated intestinal fluid. Format: in vitro ADME. The settings on record: one phase decay. An excerpt: (§1) N, 3 independent experiments.
Simulated intestinal fluids. The first hurdle that a peptide faces upon oral delivery is the high salt and acidic environment of the stomach that can denature the therapeutic peptide as well as the action of pepsin. Enteric coating can overcome this first hurdle easily with currently available industrial processes. Thus, we assessed the stability of the lipidized peptides in simulated intestinal fluids from non-fasted animals i.e. soluble fraction of digestive enzymes present in the upper gastrointestinal (and the major absorptive site for peptides). This soluble fraction contains pancreatic proteases such as trypsin and chymotrypsin, carboxypeptidases and aminopeptidases able to hydrolyse peptides down to di- or tripeptides. […] However, permeability across the BBB needs to be taken into consideration.

Another data set can be described thus: Plasma stability (human). It counts as in vitro ADME. To be noted: for k / half-life: human plasma, one phase decay; for half-life: human, plasma.
From the text: as §1
(§2) Plasma stability. […] Based on the higher lipophilicity of myristoylated peptides, dodecanoyl peptides are expected to be less protein bound and a higher percentage of the peptide will be available for permeation across biological barriers such as the BBB (only free fraction is available for transport). Thus, Dodecanoyl-[…] is a likely candidate for further development.

Data set [2] is described as follows: Brain stability (brain homogenate). Format: in vitro ADME, mouse. To be noted: for brain stability (comparative): longer half-lives; for half-life: mouse, brain homogenate.
From the text: as §1

Another data set can be described thus: in vitro. The settings on record: human; for Papp at 200 μM: BBB permeability; for Papp: Papp0-4 h experiment 2. The method, then:
(§3) The in vitro permeability across a human 2D blood-brain Transwell model (hCMEC/D3 and human astrocytes SC-1800) was tested and enabled the calculation of the apparent permeability coefficient (Papp) for all peptides.

In data set [3] the test system is in vitro 2D human BBB model (hCMEC/D3 and human astrocytes SC-1800). The data set is described as follows: in vitro. The method, then: as §3
The nature of data set [4]: Liver stability (liver homogenate). The settings on record: for half-life: mouse, liver homogenate. Format: in vitro ADME, mouse.
From the text: as §1
Liver stability (mouse). Clearance of peptide therapeutics is highly dependent on the high metabolism occurring by liver enzymes able to degrade within minutes the total dose of peptide reaching the bloodstream after intravenous, other parenteral and non-invasive (oral and nasal routes). Peptides with good plasma and liver stability are more likely to remain in circulation and thus elicit higher levels if peptide is brain permeable across the BBB via invasive and non-invasive routes.

The next data set can be described thus: Plasma stability (mouse). Format: in vitro ADME. The settings on record: for half-life: mouse, plasma; for half-life / k: one phase decay.
From the text: as §1, §2

Data set [5] can be described thus: Self-assembly (Thioflavin T, critical aggregate concentration) and TEM. Format: physicochemical. To be noted: aqueous media, ThT. From the text: Peptides were able to aggregate in aqueous media and interact with Thioflavin T (ThT). ThT can be immobilized in fibrils/aggregates resulting in an increase in fluorescence. Dodecanoyl-[…] and Myristoyl-[…] result in lower critical aggregate concentrations (CAC) that is ˜5-fold lower from their equivalent lipidized peptides with a threonine. […] CAC is ˜20-fold smaller for myristoylated peptides compared to dodecanoyl peptides. […] This conserved structure can explain the increased stability and likely the success in solubilizing/stabilizing the peptide aggregates in hydroxyl-b-propyl cyclodextrin.

Data set [6] is described as follows: Physicochemical properties (water solubility).
Data set [7] relates to in vitro 2D human BBB model (hCMEC/D3 and human astrocytes SC-1800). To be noted: brain permeable peptide, literature; cited from earlier work.
Where [8] appears, read: brain, one phase decay, read-out: t1/2 (h).
[9] abbreviates: brain, one phase decay, read-out: t1/2 (min).
Setting [10] is: liver, one phase decay, read-out: t1/2 (h).
The mark [11] stands for this setting: liver, one phase decay, read-out: t1/2 (min).

The source of these data is US20220153782A1, “COMPOUNDS, COMPOSITIONS AND METHODS FOR TREATING A NEUROLOGICAL CONDITION” (MEMORYPLUS LTD., priority 2019, published 2022).

What is called Papp is the rate of passage across a membrane or cell layer, normalised by area and donor concentration. A higher Papp goes with fast passage. The fraction remaining is the share of the starting amount still present when the sample was taken.

“Also recorded” adds a separate entry of the source. Where a SMILES comes first, the peptide text is derived from it. [ ]: non-standard residue; d: D form. The star is where a group is joined. ξ: configuration not given here. Myristoyl = CCCCCCCCCCCCCC(=O)*; dThr(3ξ) = CC(O)[C@@H](N)C(=O)O; Lauroyl = CCCCCCCCCCCC(=O)*; ξIle = CC[C@H](C)C(N)C(=O)O

Procedure for hCMEC/D3 cells: Cell metabolic activity was calculated in Human cerebral microvascular endothelial cells (hCMEC/D3) after exposure to the peptides at various concentrations for 4 or 24 hours (n=3, FIG. 7).
At the specified time points, the MTT solution (20 μL at 5 mg mL^−1 solution in PBS) were added to each well and cells were incubated for 4 hours at 37° C. Subsequently, DMSO (100 μL) was added to dissolve the formazan crystals and absorbance was measured at 570 and 690 nm using Multiskan Go microplate spectrophotometer and data were analysed using the SkanIt software (Thermo Scientific, Paisley, UK). Cell metabolic activity was calculated by subtracting the values at 690 nm from 570 nm to remove background, and dividing the values by the control to express as a percentage (%) of the control (0.5% DMSO):

For `CCCCCCCCCCCC(=O)N[C@@H](CCC(N)=O)C(=O)N[C@H](Cc1c[nH]cn1)C(=O)N[C@@H](CO)C(=O)N[C@H](CCC(N)=O)C(=O)NC(C(=O)N[C@@H](C(=O)N[C@@H](CCCCN)C(=O)N[C@@H](C(=O)O)C(C)C)C(C)O)[C@@H](C)CC` (stereo partly shown) (Lauroyl-Q[dH]S[dQ][ξIle][dThr(3ξ)]K[dV]-OH), the “freezing behavior compared with the myristoyl peptide” value with APP/PS1 mice (FIG. 5) is on record as “more than the myristoyl peptide”. The “increase in freezing compared to myristoyl-QHSQITKV” value in the data set with APP/PS1 mice (fear conditioning test) was found to be 36%. In addition, in the data set with APP/PS1 mice (i.c.v. infusion 3-4 weeks, vs vehicle, FIG. 4B), the “contextual fear conditioning performance (freezing behavior)” value is “improved the performance; also recorded: enhance freezing behavior”. Further, the k was 0.2337 h⁻¹ in [1]; 0.2102 h⁻¹ in “Plasma stability (human)”; 1.901 h⁻¹ in [2] (brain, one phase decay); 1.146 h⁻¹ in [4] (liver, one phase decay); 4.595 h⁻¹ in “Plasma stability (mouse)”. Further, the half-life in data set [1] (read-out: t1/2 (h)) is 2.97 h; in [1] (read-out: t1/2 (min)), 2.97 h; in “Plasma stability (human)” (read-out: t1/2 (h)), 3.3 h; in the data set “Plasma stability (human)” (read-out: t1/2 (min)) it was 3.3 h; in [2] (setting [8]), 0.365 h; in [2] (setting [9]), 0.365 h. The half-life is 0.605 h in [4] (setting [10]), 0.605 h in data set [4] (setting [11]), 0.151 h in “Plasma stability (mouse)” (read-out: t1/2 (h)) and 0.151 h in “Plasma stability (mouse)” (read-out: t1/2 (min)). The Cell viability entry in the data set with hCMEC/D3 cells is reported as “+++++”. Further, the “cell viability” value in the data set on hCMEC/D3 cells was “good”. In “Plasma stability (human)”, the “human plasma stability” value was “good”. Besides, the “brain stability (comparative)” value in [2] (brain (mouse)) is reported as “more brain stable”. Further, the Papp at 200 μM in “in vitro” is above 3.77 ×10⁻⁶ cm/s. In the data set “in vitro”, this molecule gave a Papp of 5.57 ± 0.289 ×10⁻⁶ cm/s. In [3], the “BBB permeability” value is “good”.
Consider `CCCCCCCCCCCCCC(=O)N[C@@H](CCC(N)=O)C(=O)N[C@@H](Cc1c[nH]cn1)C(=O)N[C@@H](CO)C(=O)N[C@@H](CCC(N)=O)C(=O)N[C@H](C(=O)N[C@H](C(=O)N[C@@H](CCCCN)C(=O)N[C@H](C(=O)O)C(C)C)[C@@H](C)O)[C@@H](C)CC` (Myristoyl-QHSQITKV-OH; C-terminus assumed), for which the k in data set [1] was 0.1534 h⁻¹; in the data set “Plasma stability (human)”, 0.3116 h⁻¹; in data set [2] (brain, one phase decay), 2.714 h⁻¹; in data set [4] (liver, one phase decay), 0.5092 h⁻¹; in the data set “Plasma stability (mouse)”, 0.7972 h⁻¹. Further, the half-life in data set [1] (read-out: t1/2 (h)) is 4.52 h; in [1] (read-out: t1/2 (min)), 4.52 h; in the data set “Plasma stability (human)” (read-out: t1/2 (h)) it was 2.22 h; in the data set “Plasma stability (human)” (read-out: t1/2 (min)), 2.22 h; in data set [2] (brain (mouse), read-out: half-life (converted)), 0.26 h; in data set [2] (setting [8]), 0.255 h. In addition, the half-life in [2] (setting [9]) is 0.255 h; in data set [4] (liver (mouse), read-out: half-life (converted)), 1.4 h; in [4] (setting [10]), 1.36 h; in data set [4] (setting [11]), 1.36 h; in “Plasma stability (mouse)” (read-out: t1/2 (h)), 0.869 h; in the data set “Plasma stability (mouse)” (read-out: t1/2 (min)), 0.869 h. For the same molecule, the Cell viability result with hCMEC/D3 cells was “+”. In addition, in the data set with hCMEC/D3 cells, the “recovery of cells at 24 hours” value was “did not recover”. The “brain stability (comparative)” value in data set [2] (brain (mouse)) is given as “more brain stable”. Moreover, the “critical aggregate concentration (CAC), lower than equivalent lipidized peptide with a threonine” value in data set [5] is given as around 5 fold. This molecule also returned a Papp at 200 μM in “in vitro” below 3.77 ×10⁻⁶ cm/s. In “in vitro”, this molecule registered a Papp of 2.63 ± 0.0786 ×10⁻⁶ cm/s. Besides, the “BBB permeability” value in data set [3] was “poor”. Besides, the “water solubility (comparative with threonine analogue)” value in data set [6] is reported as “higher water solubility”. In addition, in the data set “Plasma stability (mouse)” (after 2 hours of incubation, read-out: peptide remaining), the share remaining at 2 h is around 50%. The “stability in mouse plasma (comparative)” value in the data set “Plasma stability (mouse)” (longer half-lives) is on record as “more plasma stable”.
Regarding Angiopep-2, in [7], the “Papp, previous reported value” was 8.69±1.53 ×10^−6 cm/s.
With `CCCCCCCCCCCCCC(=O)N[C@@H](CCC(N)=O)C(=O)N[C@@H](Cc1c[nH]cn1)C(=O)N[C@H](C(=O)N[C@@H](CCC(N)=O)C(=O)N[C@H](C(=O)N[C@H](C(=O)N[C@@H](CCCCN)C(=O)N[C@H](C(=O)O)C(C)C)[C@@H](C)O)[C@@H](C)CC)[C@@H](C)O` (Myristoyl-QHTQITKV-OH; C-terminus assumed), the k in [1] is 0.2490 h⁻¹; in “Plasma stability (human)”, 1.604 h⁻¹; in data set [2] (brain, one phase decay) it was 4.204 h⁻¹; in [4] (liver, one phase decay), 0.03747 h⁻¹; in “Plasma stability (mouse)”, 6.172 h⁻¹. Also, in the data set with hCMEC/D3 cells, the Cell viability entry is reported as “+++++”. Moreover, the half-life in “Plasma stability (human)” (read-out: t1/2 (h)) was determined as 0.432 h; in “Plasma stability (human)” (read-out: t1/2 (min)), 0.432 h; in data set [2] (setting [8]), 0.165 h; in data set [2] (setting [9]) it was 0.165 h; in data set [4] (setting [10]), 18.5 h; in [4] (setting [11]) it was 18.5 h. Besides, the half-life in data set [4] (liver, two phase decay, fast, read-out: t1/2 (h) (fast) (converted)) is 0.227 h; in data set [4] (liver, two phase decay, fast, read-out: t1/2 (min) (fast)) it was 0.227 h; in data set [4] (liver, two phase decay, slow, read-out: t1/2 (h) (slow) (converted)), 1510 h; in data set [4] (liver, two phase decay, slow, read-out: t1/2 (min) (slow)), 1510 h; in the data set “Plasma stability (mouse)” (read-out: t1/2 (h)), 0.112 h; in the data set “Plasma stability (mouse)” (read-out: t1/2 (min)) it was 0.112 h. In addition, the Papp at 200 μM in the data set “in vitro” was in the range of 2.63 to 5.57 ×10⁻⁶ cm/s. The apparent permeability coefficient (Papp) in “in vitro” stood at 3.77 ± 0.386 ×10⁻⁶ cm/s. For the same molecule, the “physicochemical properties for successful development” value in [6] is “poor”. In data set [4] (liver, two phase decay, fast), the “k (fast)” value is recorded as 3.051 (fast), h^−1. Moreover, the “k (slow)” value in data set [4] (liver, two phase decay, slow) amounted to 0.00046 h⁻¹.
